According to BindingDB's records for doi:10.3109/14756366.2011.645241 (Cairo University, 2013):

Assays:
[1] = target: Cannabinoid receptor 1 (Homo sapiens, UniProt P21554); experiment: Cannabinoid Receptor Binding Assay
Method: (§1) Membranes from HEK-293 cells transfected with the human recombinant CB1 receptor(Bmax=2.5pmol/mg protein) and human recombinant CB2 receptor (B max=4.7 pmol/mgprotein) were incubated with [3H]-CP-55,940 (0.14 nM / Kd = 0.18 nM and 0.084nM / Kd =0.31 nM respectively for CB1 and CB2 receptor) as the high affinity ligand and displaced with 10 μM WIN 55212-2 as the heterologous competitor for non specific binding (Ki values 9.2 nM and 2.1 nM respectively for CB1 and CB2 receptor). All compounds were tested following the procedure described by the manufacturer (Perkin Elmer, Italy). Displacement curves were generated by incubating drugs with [3H]-CP-55,940 for 90 minutes at 30 C. Ki values were calculated by applying the Cheng-Prusoff equation to the IC50 values (obtained by GraghPad) for the displacement of the bound radioligand by increasing concentrations of the testcompound. Data are means±SEM of at least n=3 experiments.

[2] = target: Cannabinoid receptor 2 (Homo sapiens, UniProt P34972); experiment: Cannabinoid Receptor Binding Assay
Method: as §1

Cannabinoid receptor 1, sequence (P21554 whole entry): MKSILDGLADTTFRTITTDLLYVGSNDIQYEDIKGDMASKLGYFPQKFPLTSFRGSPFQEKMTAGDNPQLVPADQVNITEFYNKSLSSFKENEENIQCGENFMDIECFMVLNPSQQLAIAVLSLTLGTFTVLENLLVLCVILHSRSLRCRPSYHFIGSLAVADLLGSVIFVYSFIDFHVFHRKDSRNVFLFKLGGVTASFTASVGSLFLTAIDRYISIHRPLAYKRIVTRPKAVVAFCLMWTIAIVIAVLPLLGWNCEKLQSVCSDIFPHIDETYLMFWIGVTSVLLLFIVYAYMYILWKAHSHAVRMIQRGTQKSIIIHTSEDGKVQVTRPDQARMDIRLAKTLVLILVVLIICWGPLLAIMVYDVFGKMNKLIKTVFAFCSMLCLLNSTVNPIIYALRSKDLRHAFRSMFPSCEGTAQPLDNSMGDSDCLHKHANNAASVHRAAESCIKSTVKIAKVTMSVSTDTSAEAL
Cannabinoid receptor 2, sequence (P34972 whole entry): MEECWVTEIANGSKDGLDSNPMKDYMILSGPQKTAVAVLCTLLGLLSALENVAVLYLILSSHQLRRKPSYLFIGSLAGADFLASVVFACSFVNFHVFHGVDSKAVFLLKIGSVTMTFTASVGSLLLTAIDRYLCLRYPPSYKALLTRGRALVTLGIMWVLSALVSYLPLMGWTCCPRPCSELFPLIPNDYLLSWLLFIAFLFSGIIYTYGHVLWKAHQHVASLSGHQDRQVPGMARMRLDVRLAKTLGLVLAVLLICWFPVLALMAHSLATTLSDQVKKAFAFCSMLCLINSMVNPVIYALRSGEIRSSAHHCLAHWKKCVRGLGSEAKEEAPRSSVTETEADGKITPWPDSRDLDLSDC

| SMILES | IC50 [1] | Ki [1] | IC50 [2] | Ki [2] |
| --- | --- | --- | --- | --- |
| CC(=O)Nc1ccc(OC(=O)CCC(=O)Nc2cccc3ccccc23)cc1 [4-Acetamidophenyl 4-(naphthalen-1-ylamino)-4-oxobutanoate (5c)] | > 10 µM | > 10 µM | > 10 µM | > 10 µM |
| CC(=O)Nc1ccc(OC(=O)CCC(=O)/C=C/c2ccccc2)cc1 [(E)-4-Acetamidophenyl 4-oxo-6-phenylhex-5-enoate (3l)] | > 10 µM | > 10 µM | > 10 µM | > 10 µM |
| CCC(C)(O)NC(=O)CCC(=O)/C=C/c1ccc(OC)c(OC)c1 (stereo not given) [(E)-6-(3,4-Dimethoxyphenyl)-N-(2-hydroxybutan-2-yl)-4-oxohex-5-enamide (3i)] | > 10 µM | > 10 µM | > 10 µM | > 10 µM |
| CCC(C)(O)NC(=O)CCC(=O)/C=C/c1ccc(OCc2ccccc2)cc1 (stereo not given) [(E)-6-(4-(Benzyloxy)phenyl)-N-(2-hydroxybutan-2-yl)-4-oxohex-5-enamide (3j)] | > 10 µM | > 10 µM | > 10 µM | > 10 µM |
| CCC(C)(O)NC(=O)CCC(=O)/C=C/c1ccc(-c2ccccc2)cc1 (stereo not given) [(E)-6-(Biphenyl-4-yl)-N-(2-hydroxybutan-2-yl)-4-oxohex-5-enamide (3m)] | > 10 µM | > 10 µM | > 10 µM | > 10 µM |
| CCC(C)(O)NC(=O)CCC(=O)/C=C/c1ccc(N(C)C)cc1 (stereo not given) [(E)-6-[4-(Dimethylamino)phenyl]-N-(2-hydroxybutan-2yl)-4-oxohex-5-enamide (3g)] | > 10 µM | > 10 µM | > 10 µM | > 10 µM |

The next lines start with the values.

| IC50 [1] | Ki [1] | IC50 [2] | Ki [2] | SMILES |
| --- | --- | --- | --- | --- |
| > 10 µM | > 10 µM | > 10 µM | > 10 µM | CCOC(=O)CNC(=O)CCC(=O)/C=C/c1ccc(OC)c(OC)c1 [(E)-Ethyl 2-(6-(3,4-dimethoxyphenyl)-4-oxohex-5-enamido)acetate (3h)] |
| > 10 µM | > 10 µM | > 10 µM | > 10 µM | CCOC(=O)CNC(=O)CCC(=O)/C=C/c1ccc(OCc2ccccc2)cc1 [(E)-Ethyl 2-(6-(4-(benzyloxy)phenyl)-4-oxohex-5-enamido)acetate (3k)] |
| > 10 µM | > 10 µM | > 10 µM | > 10 µM | O=C(/C=C/c1ccccc1)CCC(=O)NC(CO)(CO)CO [(E)-N-(1,3-Dihydroxy-2-(hydroxymethyl)propan-2-yl)-4-oxo-6-phenylhex-5-enamide (3b)] |
| > 10 µM | > 10 µM | > 10 µM | > 10 µM | Cc1ccc(/C=C/C(=O)CCC(=O)NC(CO)(CO)CO)cc1 [(E)-N-(1,3-Dihydroxy-2-(hydroxymethylpropan-2-yl)-4-oxo-6-p-tolylhex-5-enamide (3e)] |
| > 10 µM | > 10 µM | > 10 µM | > 10 µM | CCC(C)(O)NC(=O)CCC(=O)/C=C/c1ccc(C)cc1 (stereo not given) [(E)-N-(2-Hydroxybutan-2-yl)-4-oxo-6-p-tolylhex-5-enamide (3d)] |
| > 10 µM | > 10 µM | > 10 µM | > 10 µM | CCC(C)(O)NC(=O)CCC(=O)/C=C/c1ccccc1 (stereo not given) [(E)-N-(2-Hydroxybutan-2-yl)-4-oxo-6-phenylhex-5-enamide (3a)] |
| > 10 µM | > 10 µM | > 10 µM | > 10 µM | Cc1ccc(/C=C/C(=O)CCC(=O)Nc2ccc(O)cc2)cc1 [(E)-N-(4-Hydroxyphenyl)-4-oxo-6-p-tolylhex-5-enamide (3f)] |
| > 10 µM | > 10 µM | > 10 µM | > 10 µM | CCOC(=O)CNC(=O)CCC(=O)Nc1cccc2ccccc12 [Ethyl 2-(4-(naphthalen-1-ylamino)-4-oxobutanamido)acetate (5b)] |
| > 10 µM | > 10 µM | > 10 µM | > 10 µM | CCC(C)(O)NC(=O)CCC(=O)Nc1cccc2ccccc12 (stereo not given) [N-(2-Hydroxybutan-2-yl)-2-(4-naphthalen-1-ylamino)-4-oxobutanamide (5a)] |
